In US20120309796A1, “BENZOCYCLOHEPTENE ACETIC ACIDS” (priority 2011, published 2012):
pIC50: −log10 of the molar value.

target: T1, human CRTH2 (Homo sapiens, UniProt Q9Y5Y4); assay: Human CRTH2 Receptor Binding Assay (whole cell, [3H]ramatroban competition); design: two mammalian expression vectors that harbored human CRTH2 and G-alpha16 cDNAs; expressed in transfected cells; details: CHO-K1 cells expressing human CRTH2 and G-alpha16; 20 nM [3H]ramatroban; 1 hour, room temperature
T1 sequence (Q9Y5Y4 1-395): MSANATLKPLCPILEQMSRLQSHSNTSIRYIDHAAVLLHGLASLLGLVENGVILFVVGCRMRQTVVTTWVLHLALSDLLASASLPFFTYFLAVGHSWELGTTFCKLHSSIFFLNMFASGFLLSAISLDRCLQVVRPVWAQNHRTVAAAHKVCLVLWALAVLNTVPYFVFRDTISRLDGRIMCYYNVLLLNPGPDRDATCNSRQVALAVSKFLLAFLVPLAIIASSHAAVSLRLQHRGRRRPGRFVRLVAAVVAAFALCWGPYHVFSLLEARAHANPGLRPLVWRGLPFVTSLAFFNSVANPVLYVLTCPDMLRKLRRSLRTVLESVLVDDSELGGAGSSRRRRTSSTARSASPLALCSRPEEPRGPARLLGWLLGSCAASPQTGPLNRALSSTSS
From the text: A whole cell receptor binding assay using [^3H]ramatroban as the competing radioactive ligand was employed to evaluate the compound binding activity to human CRTH2. The radioactive ligand [^3H]ramatroban was synthesized according to Sugimoto et. al. (Eur. J. Pharmacol. 2005, 524, 30-37) to a specific activity of 42 Ci/mmol
A cell line stably expressing human CRTH2 was established by transfecting CHO-K1 cells with two mammalian expression vectors that harbored human CRTH2 and G-alpha16 cDNAs, respectively, using FuGene® 6 transfection reagent (from Roche). Stable clones expressing CRTH2 were selected by staining each clone with BM16 (BD Pharmingen™ from BD Biosciences, a division of Becton, Dickinson and Company), which is a rat monoclonal antibody to human CRTH2. The cells were maintained as monolayer cultures in Ham's F-12 medium containing 10% fetal bovine serum, 100 units/mL penicillin, 100 μg/mL streptomycin, 2 mM glutamine, 0.5 mg/mL G418 (geneticin) for CRTH2, and 0.2 mg/mL hygromycin-B (for G-alpha 16). For whole cell receptor binding assay, the monolayer cells were rinsed once with PBS (phosphate buffered saline), dissociated using ethylenediaminetetraacetate (Versene™ EDTA from Lonza Inc.), and suspended in PBS containing 10 mM MgCl2 and 0.06% BSA (bovine serum albumin) at 1.5×10^6 cells/mL.
The binding reactions (0.2 mL) were performed in 96-well plates at room temperature in PBS containing 1.5×10^5 cells, 10 mM MgCl2, 0.06% BSA, 20 nM [^3H]ramatroban, and test compound at various concentrations. After 1 hour of binding reactions, the cells were harvested on GF™/B filter microplates (microtiter plates with embedded glass fiber from PerkinElmer, Inc.) and washed 5 times with PBS using a Filtermate™ Harvester (a cell harvester that harvests and washes cells from microplates from PerkinElmer, Inc.). The radioactivities bound to the cells were determined using a microplate scintillation counter (TopCount® NXT, from PerkinElmer, Inc.) after adding 50 μL of Microscint™ 20 scintillation fluid (from PerkinElmer, Inc.) to each well of the filter plates. The radioactivity from non-specific binding was determined by replacing compound with 10 μM of 15(R)-15-methyl PGD2 (from Cayman Chemical Company) in the reaction mixtures. The radioactivity bound to the cells in the absence of compound (total binding) was determined by replacing compound with 0.25% of DMSO (dimethyl sulfoxide) in the reaction mixture. Specific binding data were obtained by subtracting the radioactivity of non-specific binding from each binding data.
The IC50 value is defined as the concentration of the tested compound that is required for 50% inhibition of total specific binding. In order to calculate the IC50 value, the percent inhibition data were determined for 7 concentrations for each compound. The percent inhibition for a compound at each concentration was calculated according to the following formula, [1-(specific binding in the presence of compound)/(total specific binding)]×100. The IC50 value was then obtained by fitting the percent inhibition data to a sigmoidal dose-response (4 parameter logistic) model in the XLfit® software Excel add-in program [from ID Business Solutions Ltd., model 205, where F(x)=(A+(B−A)/(1+((C/x)̂D)))].

| pIC50 | Compound |
| --- | --- |
| 6.91 | CC(C)c1cccc(-c2ccc(S(=O)(=O)N(C)C3CCCCc4c(OCC(=O)O)cccc43)nc2)c1 (centres unmarked) [Example 32, (5-{[5-(3-Isopropyl-phenyl)-pyridine-2-sulfonyl]-methyl-amino}-6,7,8,9-tetrahydro-5H-benzocyclohepten-1-yloxy)-acetic acid] |
| 6.53 | CC(C)c1cc(C(F)(F)F)cc(S(=O)(=O)NC2CCCCc3c(OCC(=O)O)cccc32)c1 (centres unmarked) [Example 43, [5-(3-Isopropyl-5-trifluoromethyl-benzenesulfonylamino)-6,7,8,9-tetrahydro-5H-benzocyclohepten-1-yloxy]-acetic acid] |
| 6.22 | CSc1cccc(-c2ccc(S(=O)(=O)N(C)C3CCCCc4c(OCC(=O)O)cccc43)cc2)c1 (centres unmarked) [Example 28, {5-[Methyl-(3′-methylsulfanyl-biphenyl-4-sulfonyl)-amino]-6,7,8,9-tetrahydro-5H-benzocyclohepten-1-yloxy}-acetic acid] |
| 8.23 | CC(=O)c1cc(C(F)(F)F)cc(S(=O)(=O)N(C)C2CCCCc3c(OCC(=O)O)cccc32)c1 (centres unmarked) [Example 16, {5-[(3-Acetyl-5-trifluoromethyl-benzenesulfonyl)-methyl-amino]-6,7,8,9-tetrahydro-5H-benzocyclohepten-1-yloxy}-acetic acid] |
| 6.01 | CN(C1CCCCc2c(OCC(=O)O)cccc21)S(=O)(=O)c1ccc(-c2ccc(O)cc2)cc1 (centres unmarked) [Example 24, {5-[(4′-Hydroxy-biphenyl-4-sulfonyl)-methyl-amino]-6,7,8,9-tetrahydro-5H-benzocyclohepten-1-yloxy}-acetic acid] |
| 7.61 | CSc1cccc(-c2ccc(S(=O)(=O)NC3CCCCc4c(OCC(=O)O)cccc43)cc2)c1 (centres unmarked) [Example 27, [5-(3′-Methylsulfanyl-biphenyl-4-sulfonylamino)-6,7,8,9-tetrahydro-5H-benzocyclohepten-1-yloxy]-acetic acid] |
| 6.98 | COc1cc(C(F)(F)F)cc(S(=O)(=O)N(C)C2CCCCc3c(OCC(=O)O)cccc32)c1 (centres unmarked) [Example 14, {5-[(3-Methoxy-5-trifluoromethyl-benzenesulfonyl)-methyl-amino]-6,7,8,9-tetrahydro-5H-benzocyclohepten-1-yloxy}-acetic acid] |
| 6.12 | CN(C1CCCCc2c(OCC(=O)O)cccc21)S(=O)(=O)c1ccc(-c2ccccc2)cc1 (centres unmarked) [Example 12, {5-[(Biphenyl-4-sulfonyl)-methyl-amino]-6,7,8,9-tetrahydro-5H-benzocyclohepten-1-yloxy}-acetic acid] |
| 6.29 | Cc1ccc(-c2cccc(S(=O)(=O)NC3CCCCc4c(OCC(=O)O)cccc43)c2)cc1 (centres unmarked) [Example 39, [5-(4′-Methyl-biphenyl-3-sulfonylamino)-6,7,8,9-tetrahydro-5H-benzocyclohepten-1-yloxy]-acetic acid] |
| 7.89 | CC(C)c1cccc(-c2ccc(S(=O)(=O)NC3CCCCc4c(OCC(=O)O)cccc43)cc2)c1 (centres unmarked) [Example 19, [5-(3′-Isopropyl-biphenyl-4-sulfonylamino)-6,7,8,9-tetrahydro-5H-benzocyclohepten-1-yloxy]-acetic acid] |
| 7.46 | Cc1cc(-c2ccc(S(=O)(=O)NC3CCCCc4c(OCC(=O)O)cccc43)cc2)cc(C(C)(C)C)c1 (centres unmarked) [Example 21, [5-(3′-tert-Butyl-5′-methyl-biphenyl-4-sulfonylamino)-6,7,8,9-tetrahydro-5H-benzocyclohepten-1-yloxy]-acetic acid] |
| 6.70 | CC(C)c1cc(C(F)(F)F)cc(S(=O)(=O)N(C)C2CCCCc3c(OCC(=O)O)cccc32)c1 (centres unmarked) [Example 44, {5-[(3-Isopropyl-5-trifluoromethyl-benzenesulfonyl)-methyl-amino]-6,7,8,9-tetrahydro-5H-benzocyclohepten-1-yloxy}-acetic acid] |
| 5.83 | O=C(O)COc1cccc2c1CCCCC2NS(=O)(=O)c1cc(C(F)(F)F)cc(C(F)(F)F)c1 (single isomer, unassigned) [Example 45, [5-(3,5-Bis-trifluoromethyl-benzenesulfonylamino)-6,7,8,9-tetrahydro-5H-benzocyclohepten-1-yloxy]-acetic acid] |
| 7.48 | CN(C1CCCCc2c(OCC(=O)O)cccc21)S(=O)(=O)c1cc(S(C)(=O)=O)cc(S(C)(=O)=O)c1 (centres unmarked) [Example 11, {5-[(3,5-Bis-methanesulfonyl-benzenesulfonyl)-methyl-amino]-6,7,8,9-tetrahydro-5H-benzocyclohepten-1-yloxy}-acetic acid] |
| 5.58 | O=C(O)COc1cccc2c1CCCCC2NS(=O)(=O)c1cccc(-c2ccccc2)c1 (centres unmarked) [Example 3, [5-(Biphenyl-3-sulfonylamino)-6,7,8,9-tetrahydro-5H-benzocyclohepten-1-yloxy]-acetic acid] |
| 6.77 | O=C(O)COc1cccc2c1CCCCC2NS(=O)(=O)c1cc(F)cc(C(F)(F)F)c1 (centres unmarked) [Example 6, [5-(3-Fluoro-5-trifluoromethyl-benzenesulfonylamino)-6,7,8,9-tetrahydro-5H-benzocyclohepten-1-yloxy]-acetic acid] |
| 7.19 | CN(C1CCCCc2c(OCC(=O)O)cccc21)S(=O)(=O)c1cc(F)cc(C(F)(F)F)c1 (centres unmarked) [Example 7, {5-[(3-Fluoro-5-trifluoromethyl-benzenesulfonyl)-methyl-amino]-6,7,8,9-tetrahydro-5H-benzocyclohepten-1-yloxy}-acetic acid] |
| 5.83 | Cc1cncc(-c2ccc(S(=O)(=O)N(C)C3CCCCc4c(OCC(=O)O)cccc43)cc2)c1 (centres unmarked) [Example 26, (5-{Methyl-[4-(5-methyl-pyridin-3-yl)-benzenesulfonyl]-amino}-6,7,8,9-tetrahydro-5H-benzocyclohepten-1-yloxy)-acetic acid] |
| 6.72 | CN(C1CCCCc2c(OCC(=O)O)cccc21)S(=O)(=O)c1ccc(-c2cccc(S(C)(=O)=O)c2)cc1 (centres unmarked) [Example 30, {5-[(3′-Methanesulfonyl-biphenyl-4-sulfonyl)-methyl-amino]-6,7,8,9-tetrahydro-5H-benzocyclohepten-1-yloxy}-acetic acid] |
| 8.48 | CC(=O)c1cc(C(F)(F)F)cc(S(=O)(=O)NC2CCCCc3c(OCC(=O)O)cccc32)c1 (centres unmarked) [Example 15, [5-(3-Acetyl-5-trifluoromethyl-benzenesulfonylamino)-6,7,8,9-tetrahydro-5H-benzocyclohepten-1-yloxy]-acetic acid] |
| 6.72 | Cc1cc(-c2ccc(S(=O)(=O)N(C)C3CCCCc4c(OCC(=O)O)cccc43)cc2)cc(C(C)(C)C)c1 (centres unmarked) [Example 22, {5-[(3′-tert-Butyl-5′-methyl-biphenyl-4-sulfonyl)-methyl-amino]-6,7,8,9-tetrahydro-5H-benzocyclohepten-1-yloxy}-acetic acid] |
| 7.30 | CS(=O)(=O)c1cc(S(C)(=O)=O)cc(S(=O)(=O)NC2CCCCc3c(OCC(=O)O)cccc32)c1 (centres unmarked) [Example 10, [5-(3,5-Bis-methanesulfonyl-benzenesulfonylamino)-6,7,8,9-tetrahydro-5H-benzocyclohepten-1-yloxy]-acetic acid] |
| 5.67 | CN(C1CCCCc2c(OCC(=O)O)cccc21)S(=O)(=O)c1ccc(-c2cccc(CCO)c2)cn1 (centres unmarked) [Example 38, [5-({5-[3-(2-Hydroxy-ethyl)-phenyl]-pyridine-2-sulfonyl}-methyl-amino)-6,7,8,9-tetrahydro-5H-benzocyclohepten-1-yloxy]-acetic acid] |
